This note sets out measurements from ChEMBL document CHEMBL3877312, “Synthesis, anticholinesterase activity and molecular modeling study of novel carbamate-substituted thymol/carvacrol derivatives” (Bioorg Med Chem, 2017).

One data set has as its target Acetylcholinesterase (Electrophorus electricus, UniProt O42275). Nature of the data set: Inhibition of electric eel AChE using acetylthiocholine iodide as substrate preincubated for 15 mins followed by substrate addition by Ellman's method. (In general: In Ellman's method for cholinesterases, released thiocholine reacts with DTNB.)
The target of another data set is Cholinesterase (Equus caballus, UniProt P81908). Nature of the data set: Inhibition of horse serum BuChE using butyrylthiocholine iodide as substrate preincubated for 15 mins followed by substrate addition by Ellman's method.
Cholinesterase, sequence (P81908 whole entry): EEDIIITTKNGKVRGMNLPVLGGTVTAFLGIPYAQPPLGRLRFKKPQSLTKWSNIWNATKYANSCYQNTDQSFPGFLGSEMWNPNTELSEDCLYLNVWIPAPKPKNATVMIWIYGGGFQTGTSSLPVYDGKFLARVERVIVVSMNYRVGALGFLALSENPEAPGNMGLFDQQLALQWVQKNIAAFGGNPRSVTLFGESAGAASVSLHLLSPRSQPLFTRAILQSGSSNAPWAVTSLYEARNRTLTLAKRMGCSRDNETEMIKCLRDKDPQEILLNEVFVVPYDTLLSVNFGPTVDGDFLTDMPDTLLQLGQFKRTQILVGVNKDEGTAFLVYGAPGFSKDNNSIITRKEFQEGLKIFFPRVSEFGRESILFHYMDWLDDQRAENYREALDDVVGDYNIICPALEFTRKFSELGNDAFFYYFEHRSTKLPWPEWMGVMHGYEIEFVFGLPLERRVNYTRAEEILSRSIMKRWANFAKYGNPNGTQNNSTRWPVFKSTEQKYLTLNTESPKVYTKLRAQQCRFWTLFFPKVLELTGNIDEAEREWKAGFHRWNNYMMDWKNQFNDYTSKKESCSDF
Data set [1] can be described thus: Cytotoxicity against rat H4IIE cells assessed as cell viability at 0.3 uM after 24 hrs by MTT assay relative to control. The conditions noted are these: read-out: Activity. Type of data set: toxicity.
The nature of data set [2]: Cytotoxicity against rat H4IIE cells assessed as cell viability at 5 uM after 24 hrs by MTT assay relative to control. Type of data set: toxicity. The note with it: read-out: Activity. For orientation: Tetrazolium dyes change colour on reduction, which living cells bring about.
A short description of data set [3]: Cytotoxicity against rat H4IIE cells assessed as cell viability at 1.25 uM after 24 hrs by MTT assay relative to control. Type of data set: toxicity. The conditions noted are these: read-out: Activity.
Data set [4] in a line: Cytotoxicity against rat H4IIE cells assessed as cell viability at 0.6 uM after 24 hrs by MTT assay relative to control. Type of data set: toxicity. The note with it: read-out: Activity.
Data set [5] in a line: Cytotoxicity against rat H4IIE cells assessed as cell viability at 2.5 uM after 24 hrs by MTT assay relative to control. Type of data set: toxicity. The conditions noted are these: read-out: Activity.
Data set [6] can be described thus: Cytotoxicity against rat H4IIE cells assessed as cell viability at 0.15 uM after 24 hrs by MTT assay relative to control. Type of data set: toxicity. The conditions noted are these: read-out: Activity.
Data set [7] can be described thus: Cytotoxicity against rat H4IIE cells assessed as cell viability at 10 uM after 24 hrs by MTT assay relative to control. The note with it: read-out: Activity. Type of data set: toxicity.
The nature of data set [8]: Cytotoxicity against rat H4IIE cells assessed as cell viability at 0.07 uM after 24 hrs by MTT assay relative to control. Type of data set: toxicity. The conditions noted are these: read-out: Activity.

Acetylcholinesterase, sequence (O42275 whole entry): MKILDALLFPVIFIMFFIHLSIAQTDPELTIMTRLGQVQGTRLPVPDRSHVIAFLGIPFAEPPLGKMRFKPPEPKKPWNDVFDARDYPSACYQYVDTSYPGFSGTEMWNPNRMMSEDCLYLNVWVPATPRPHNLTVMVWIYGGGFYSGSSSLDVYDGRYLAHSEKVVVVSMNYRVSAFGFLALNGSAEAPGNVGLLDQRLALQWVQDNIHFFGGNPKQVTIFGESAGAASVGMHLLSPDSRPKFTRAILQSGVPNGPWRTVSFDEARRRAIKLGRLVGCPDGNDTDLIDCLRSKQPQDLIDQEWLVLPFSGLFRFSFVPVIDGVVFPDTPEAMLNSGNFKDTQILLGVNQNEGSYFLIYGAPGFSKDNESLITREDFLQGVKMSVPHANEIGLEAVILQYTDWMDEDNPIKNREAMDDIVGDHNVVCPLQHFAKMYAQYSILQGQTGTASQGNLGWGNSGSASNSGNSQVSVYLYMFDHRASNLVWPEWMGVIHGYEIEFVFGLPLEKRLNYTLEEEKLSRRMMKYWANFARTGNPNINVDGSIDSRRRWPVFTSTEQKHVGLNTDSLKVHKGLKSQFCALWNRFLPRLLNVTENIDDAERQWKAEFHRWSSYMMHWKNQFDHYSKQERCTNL

Regarding `Cc1ccc(C(C)C)cc1OC(=O)Nc1cccc2ccccc12`, the IC50 against Acetylcholinesterase is 127 µM; on Cholinesterase it was 0.51 µM.

In the case of `Cc1ccc(NC(=O)Oc2cc(C(C)C)ccc2C)cc1`, the IC50 against Acetylcholinesterase was 6.17 µM; at Cholinesterase, 0.31 µM.

On to `Cc1ccc(C(C)C)c(O)c1` [THYMOL], for which the IC50 is 458 µM on Acetylcholinesterase and 226 µM at Cholinesterase.

Regarding `Cc1ccc(C(C)C)c(OC(=O)NCC2CCCCC2)c1`, the 50% inhibitory concentration (IC50) against Cholinesterase is 36.8 µM.

Consider `Cc1ccc(C(C)C)c(OC(=O)Nc2cccc3ccccc23)c1`, for which the IC50 was determined as 157 µM against Acetylcholinesterase and 96.1 µM against Cholinesterase.

`Cc1ccc(C(C)C)cc1OC(=O)Nc1ccc(Cl)cc1`: the 50% inhibitory concentration (IC50) on Acetylcholinesterase worked out at 148 µM; against Cholinesterase, 0.13 µM.

Consider `Cc1ccc(C(C)C)c(OC(=O)NCc2ccccc2)c1`, for which the 50% inhibitory concentration (IC50) worked out at 111 µM against Acetylcholinesterase and 1.45 µM against Cholinesterase.

Take `COc1cccc(NC(=O)Oc2cc(C)ccc2C(C)C)c1`: the IC50 against Acetylcholinesterase came out at 154 µM; on Cholinesterase, 1.65 µM.

Regarding `Cc1ccc(C(C)C)cc1OC(=O)NC1CCCC1`, the viability at 24 h, 0.3 µM in data set [1] was determined as 71.1%. The results for the IC50 at Acetylcholinesterase and at Cholinesterase were 3.37 µM and 1.01 µM, respectively. Moreover, the viability at 24 h, 5 µM in data set [2] came out at 38.9%. The viability at 24 h, 1.25 µM in data set [3] was found to be 50.4%. Moreover, the viability at 24 h, 0.6 µM in [4] came out at 63.3%. The viability at 24 h, 2.5 µM in data set [5] was 47.8%. In addition, the viability at 24 h, 0.15 µM in data set [6] was determined as 75.6%. In addition, in [7], the viability at 24 h, 10 µM amounted to 37.4%. The viability at 24 h, 0.07 µM in data set [8] was found to be 94.4%.

On to `Cc1ccc(C(C)C)c(OC(=O)Nc2ccc(Cl)cc2)c1`, for which the IC50 at Acetylcholinesterase amounted to 229 µM; against Cholinesterase, 137 µM.

`Cc1ccc(C(C)C)c(OC(=O)Nc2cccc([N+](=O)[O-])c2)c1`: the IC50 on Acetylcholinesterase came to 82.9 µM; against Cholinesterase, 3.31 µM.

Turning to `Cc1ccc(C(C)C)cc1OC(=O)NC1CCCCCC1`, the values for the IC50 on Acetylcholinesterase and on Cholinesterase were 126 µM and 112 µM, respectively.

Turning to `Cc1ccc(C(C)C)cc1OC(=O)Nc1ccc(F)cc1`, the viability at 24 h, 0.3 µM in [1] was found to be 68.9%. Also, the concentration for half-maximal inhibition (IC50) was determined as 3.02 µM on Acetylcholinesterase and 0.02 µM against Cholinesterase. Also, the viability at 24 h, 5 µM in [2] came to 32.8%. For the same compound, the viability at 24 h, 1.25 µM in [3] was 62.2%. Moreover, the viability at 24 h, 0.6 µM in [4] is 65.9%. Further, the viability at 24 h, 2.5 µM in [5] worked out at 41.6%. Moreover, in data set [6], the viability at 24 h, 0.15 µM turned out to be 69.4%. For the same compound, in data set [7], the viability at 24 h, 10 µM is 28.5%. Also, in data set [8], the viability at 24 h, 0.07 µM was 92.8%.

As to `Cc1ccc(C(C)C)c(OC(=O)Nc2ccccc2)c1`, the 50% inhibitory concentration (IC50) at Acetylcholinesterase worked out at 198 µM; at Cholinesterase it was 5.02 µM.

As to `Cc1ccc(C(C)C)cc1OC(=O)Nc1cccc([N+](=O)[O-])c1`, the figures for the IC50 on Acetylcholinesterase and on Cholinesterase were 5.05 µM and 0.56 µM, respectively.

In the case of `Cc1ccc(C(C)C)cc1OC(=O)Nc1ccc(Br)cc1`, the concentration for half-maximal inhibition (IC50) against Acetylcholinesterase turned out to be 104 µM; at Cholinesterase, 0.15 µM.

Consider `Cc1ccc(C(C)C)c(OC(=O)Nc2ccc(I)cc2)c1`, for which the concentration for half-maximal inhibition (IC50) at Acetylcholinesterase amounted to 31.6 µM; on Cholinesterase it was 4.77 µM.

For `Cc1ccc(C(C)C)c(OC(=O)Nc2ccc(C(F)(F)F)cc2)c1`, the results for the half-inhibitory concentration (IC50) at Acetylcholinesterase and at Cholinesterase were 98.5 µM and 148 µM, respectively.

On to `Cc1ccc(C(C)C)c(OC(=O)Nc2ccc([N+](=O)[O-])cc2)c1`, for which the viability at 24 h, 0.3 µM in data set [1] is 54.4%. In addition, the values for the half-inhibitory concentration (IC50) against Acetylcholinesterase and at Cholinesterase were 2.5 µM and 37.7 µM, respectively. The viability at 24 h, 5 µM in [2] amounted to 32.8%. Further, the viability at 24 h, 1.25 µM in [3] came to 47.2%. For the same compound, in data set [4], the viability at 24 h, 0.6 µM came out at 51.7%. For the same compound, in data set [5], the viability at 24 h, 2.5 µM came out at 40%. The viability at 24 h, 0.15 µM in data set [6] came to 57.8%. Moreover, the viability at 24 h, 10 µM in data set [7] turned out to be 26.1%. In addition, the viability at 24 h, 0.07 µM in [8] is 97.8%.

Regarding `Cc1ccc(C(C)C)cc1OC(=O)Nc1ccc(Cl)c(Cl)c1`, the IC50 on Acetylcholinesterase amounted to 86.2 µM; against Cholinesterase, 0.41 µM.

Regarding `Cc1ccc(C(C)C)cc1OC(=O)NC1CCCCC1`, the IC50 came out at 23 µM against Acetylcholinesterase and 1.03 µM at Cholinesterase.

For `COc1cccc(NC(=O)Oc2cc(C(C)C)ccc2C)c1`, the values for the 50% inhibitory concentration (IC50) against Acetylcholinesterase and against Cholinesterase were 2.24 µM and 1.64 µM, respectively.

For the compound `Cc1ccc(C(C)C)cc1O` [CARVACROL], the half-inhibitory concentration (IC50) is 288 µM against Acetylcholinesterase and 411 µM at Cholinesterase.

Regarding `Cc1ccc(C(C)C)c(OC(=O)Nc2ccc(Cl)c(Cl)c2)c1`, the results for the concentration for half-maximal inhibition (IC50) on Acetylcholinesterase and against Cholinesterase were 89.5 µM and 2.54 µM, respectively.

As to `Cc1ccc(NC(=O)Oc2cc(C)ccc2C(C)C)cc1`, the IC50 against Acetylcholinesterase came out at 229 µM; against Cholinesterase it was 9.4 µM.

For `Cc1ccc(C(C)C)c(OC(=O)Nc2cccc(F)c2)c1`, the values for the IC50 against Acetylcholinesterase and on Cholinesterase were 88.5 µM and 3.85 µM, respectively.

As for `Cc1ccc(C(C)C)c(OC(=O)Nc2ccc(F)cc2)c1`, the results for the half-inhibitory concentration (IC50) at Acetylcholinesterase and against Cholinesterase were 270 µM and 405 µM, respectively.

Turning to `Cc1ccc(C(C)C)cc1OC(=O)NCc1ccccc1`, the 50% inhibitory concentration (IC50) at Acetylcholinesterase was 77.8 µM; against Cholinesterase, 0.07 µM.

At Cholinesterase, `COc1ccc(NC(=O)Oc2cc(C)ccc2C(C)C)cc1` gave an IC50 of 60 µM.

With `Cc1ccc(C(C)C)cc1OC(=O)Nc1ccc(I)cc1`, the IC50 against Acetylcholinesterase worked out at 138 µM; against Cholinesterase it was 0.21 µM.

With `Cc1ccc(C(C)C)cc1OC(=O)Nc1ccccc1`, the viability at 24 h, 0.3 µM in data set [1] was determined as 90%. Further, the IC50 on Acetylcholinesterase came to 4.01 µM; against Cholinesterase, 0.55 µM. The viability at 24 h, 5 µM in data set [2] came to 25.8%. The viability at 24 h, 1.25 µM in data set [3] is 60%. For the same compound, in [4], the viability at 24 h, 0.6 µM came to 82.5%. Also, the viability at 24 h, 2.5 µM in [5] was 43.3%. In addition, in [6], the viability at 24 h, 0.15 µM is 87.9%. Moreover, in data set [7], the viability at 24 h, 10 µM was found to be 26%. For the same compound, the viability at 24 h, 0.07 µM in data set [8] is 93.8%.

Turning to `COc1ccc(NC(=O)Oc2cc(C(C)C)ccc2C)cc1`, the figures for the 50% inhibitory concentration (IC50) on Acetylcholinesterase and against Cholinesterase were 54.5 µM and 0.52 µM, respectively.

As to `Cc1ccc(C(C)C)cc1OC(=O)Nc1ccc([N+](=O)[O-])cc1`, the IC50 is 121 µM against Acetylcholinesterase and 1.05 µM against Cholinesterase.

`Cc1ccc(C(C)C)cc1OC(=O)Nc1cccc(F)c1`: the viability at 24 h, 0.3 µM in data set [1] stood at 74.1%. The concentration for half-maximal inhibition (IC50) against Acetylcholinesterase stood at 2.22 µM; against Cholinesterase, 1.02 µM. Besides, the viability at 24 h, 5 µM in data set [2] was found to be 37.2%. The viability at 24 h, 1.25 µM in data set [3] amounted to 47.8%. Also, the viability at 24 h, 0.6 µM in data set [4] came out at 64.4%. Besides, the viability at 24 h, 2.5 µM in [5] is 45.8%. In addition, in data set [6], the viability at 24 h, 0.15 µM turned out to be 90%. Besides, in data set [7], the viability at 24 h, 10 µM is 28.5%. Besides, the viability at 24 h, 0.07 µM in [8] was 98.1%.

`Cc1ccc(C(C)C)c(OC(=O)Nc2ccc(Br)cc2)c1`: the IC50 on Acetylcholinesterase worked out at 98.6 µM; at Cholinesterase it was 107 µM.

Consider `Cc1ccc(C(C)C)cc1OC(=O)Nc1ccc(C(F)(F)F)cc1`, for which the IC50 against Acetylcholinesterase is 85.7 µM; at Cholinesterase, 1.23 µM.

Take `Cc1ccc(C(C)C)c(OC(=O)NC2CCCC2)c1`: the IC50 against Acetylcholinesterase stood at 420 µM; against Cholinesterase it was 167 µM.

In the case of `Cc1ccc(C(C)C)cc1OC(=O)NCC1CCCCC1`, the 50% inhibitory concentration (IC50) against Acetylcholinesterase amounted to 8.08 µM; against Cholinesterase, 0.3 µM.

As a reminder, the IC50 is the concentration that gives 50% inhibition. Lower therefore signals greater potency in that assay.
